Values of other authors as cited in patent US20160199302A1, “Pharmaceutical Composition Comprising Temozolomide With Improved Stability and Process for Manufacturing the Same” (Samyang Biopharmaceuticals Corporation, priority 2012, published 2016).

Details: background

Cn1nnc2c(C(N)=O)ncn2c1=O [temozolomide, 3,4-dihydro-3-methyl-4-oxoimidazo[5,1-d]-as-tetrazine-8-carboxamide]
Solubility in water: water-insoluble
